Test results: the kinase profiling compilation of Christmann-Franck et al. (2016)

What was measured:
Test in all cases: radiometric filter-binding kinase assay, Kinase HotSpot
Conditions in all cases: compound 0.5 µM; ATP 10 µM
[1] = biological target: STK33 (human) (UniProt Q9BYT3)
[2] = biological target: DMPK (human) (UniProt Q09013)
[3] = biological target: ITK (human) (UniProt Q08881)
[4] = biological target: MARK3 (human) (UniProt P27448)
[5] = biological target: MUSK (human) (UniProt O15146)
[6] = biological target: MERTK (human) (UniProt Q12866)
[7] = biological target: CSNK1G2 (human) (UniProt P78368)
[8] = biological target: WEE1 (human) (UniProt P30291)
[9] = biological target: FGFR4 (human) (UniProt P22455)
[10] = biological target: HIPK1 (human) (UniProt Q86Z02)
[11] = biological target: EPHB3 (human) (UniProt P54753)
[12] = biological target: DYRK1A (human) (UniProt Q13627)
[13] = biological target: PIM1 (human) (UniProt P11309)
[14] = biological target: CAMK2G (human) (UniProt Q13555)
[15] = biological target: PRKACA (human) (UniProt P17612)
[16] = biological target: SRMS (human) (UniProt Q9H3Y6)
[17] = biological target: CAMK2A (human) (UniProt Q9UQM7)
[18] = biological target: CSNK2A2 (human) (UniProt P19784)
[19] = biological target: PNCK (human) (UniProt Q6P2M8)
[20] = biological target: GSK3B (human) (UniProt P49841)
[21] = biological target: CSNK1G1 (human) (UniProt Q9HCP0)
[22] = biological target: NEK3 (human) (UniProt P51956)
[23] = biological target: PLK3 (human) (UniProt Q9H4B4)
[24] = biological target: MYLK2 (human) (UniProt Q9H1R3)
[25] = biological target: MAP3K5 (human) (UniProt Q99683)
[26] = biological target: MINK1 (human) (UniProt Q8N4C8)
[27] = biological target: PBK (human) (UniProt Q96KB5)
[28] = biological target: NEK7 (human) (UniProt Q8TDX7)
[29] = biological target: OXSR1 (human) (UniProt O95747)
[30] = biological target: RAF1 (human) (UniProt P04049)
[31] = biological target: STK25 (human) (UniProt O00506)
[32] = biological target: PIM3 (human) (UniProt Q86V86)
[33] = biological target: CSF1R (human) (UniProt P07333)
[34] = biological target: ULK1 (human) (UniProt O75385)
[35] = biological target: EPHA1 (human) (UniProt P21709)
[36] = biological target: DYRK3 (human) (UniProt O43781)
[37] = biological target: EPHA8 (human) (UniProt P29322)
[38] = biological target: JAK3 JH1 JH2 (human) (UniProt P52333)
[39] = biological target: NUAK1 (human) (UniProt O60285)
[40] = biological target: MAP4K4 (human) (UniProt O95819)
[41] = biological target: BTK (human) (UniProt Q06187)
[42] = biological target: FGFR3 (human) (UniProt P22607)

EPHB3 (human), sequence (P54753 whole entry, looked up): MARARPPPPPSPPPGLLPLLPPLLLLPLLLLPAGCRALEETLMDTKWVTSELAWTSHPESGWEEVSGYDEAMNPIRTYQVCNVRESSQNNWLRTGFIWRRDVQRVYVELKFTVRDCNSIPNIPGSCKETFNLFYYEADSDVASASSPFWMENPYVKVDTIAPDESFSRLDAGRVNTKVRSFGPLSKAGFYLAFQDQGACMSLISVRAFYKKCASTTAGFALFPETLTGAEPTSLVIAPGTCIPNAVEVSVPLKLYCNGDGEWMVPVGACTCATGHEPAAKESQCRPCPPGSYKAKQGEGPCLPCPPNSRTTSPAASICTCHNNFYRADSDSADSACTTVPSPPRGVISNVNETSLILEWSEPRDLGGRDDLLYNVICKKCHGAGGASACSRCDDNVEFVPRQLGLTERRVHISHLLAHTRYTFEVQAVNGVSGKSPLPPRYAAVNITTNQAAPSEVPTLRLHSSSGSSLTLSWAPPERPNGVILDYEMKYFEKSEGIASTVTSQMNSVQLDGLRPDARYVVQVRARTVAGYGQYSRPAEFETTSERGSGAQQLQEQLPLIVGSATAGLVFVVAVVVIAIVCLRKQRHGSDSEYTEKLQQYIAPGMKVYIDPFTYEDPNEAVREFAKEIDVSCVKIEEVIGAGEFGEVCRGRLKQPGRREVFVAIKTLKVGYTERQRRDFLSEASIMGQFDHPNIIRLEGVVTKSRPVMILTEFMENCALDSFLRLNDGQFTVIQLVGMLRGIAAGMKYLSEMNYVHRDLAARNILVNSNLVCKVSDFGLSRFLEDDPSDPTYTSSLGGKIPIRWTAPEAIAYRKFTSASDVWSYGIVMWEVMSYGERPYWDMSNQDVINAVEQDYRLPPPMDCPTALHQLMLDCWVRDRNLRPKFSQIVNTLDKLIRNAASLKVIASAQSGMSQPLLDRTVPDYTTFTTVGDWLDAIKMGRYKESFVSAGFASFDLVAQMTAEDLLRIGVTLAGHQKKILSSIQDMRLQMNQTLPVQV
CAMK2A (human), sequence (Q9UQM7 whole entry, looked up): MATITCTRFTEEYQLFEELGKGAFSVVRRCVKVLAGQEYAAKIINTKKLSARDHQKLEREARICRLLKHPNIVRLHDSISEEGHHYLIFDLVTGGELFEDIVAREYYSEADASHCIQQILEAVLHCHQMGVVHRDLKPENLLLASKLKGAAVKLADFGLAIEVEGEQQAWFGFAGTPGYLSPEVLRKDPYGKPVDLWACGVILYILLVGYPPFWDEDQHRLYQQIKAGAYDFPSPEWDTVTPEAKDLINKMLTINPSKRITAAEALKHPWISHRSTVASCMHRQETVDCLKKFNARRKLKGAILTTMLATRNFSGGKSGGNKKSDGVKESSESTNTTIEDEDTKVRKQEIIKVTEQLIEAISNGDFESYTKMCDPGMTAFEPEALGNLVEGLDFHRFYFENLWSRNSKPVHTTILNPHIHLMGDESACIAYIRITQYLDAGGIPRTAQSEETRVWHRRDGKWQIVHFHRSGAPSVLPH
STK33 (human), sequence (Q9BYT3 whole entry, looked up): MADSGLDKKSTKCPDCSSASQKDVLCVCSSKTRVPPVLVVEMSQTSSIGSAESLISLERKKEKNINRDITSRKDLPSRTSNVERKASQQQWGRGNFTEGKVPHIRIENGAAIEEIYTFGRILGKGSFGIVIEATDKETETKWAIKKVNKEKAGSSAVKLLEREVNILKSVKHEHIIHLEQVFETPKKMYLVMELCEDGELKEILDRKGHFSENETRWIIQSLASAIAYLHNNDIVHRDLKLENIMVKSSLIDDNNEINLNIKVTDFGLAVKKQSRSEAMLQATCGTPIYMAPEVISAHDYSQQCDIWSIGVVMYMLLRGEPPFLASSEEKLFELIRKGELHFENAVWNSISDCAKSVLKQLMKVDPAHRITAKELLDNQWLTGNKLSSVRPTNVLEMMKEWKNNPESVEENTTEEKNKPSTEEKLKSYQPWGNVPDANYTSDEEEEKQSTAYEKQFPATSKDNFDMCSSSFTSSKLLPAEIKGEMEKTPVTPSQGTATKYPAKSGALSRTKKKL
CSNK1G2 (human), sequence (P78368 whole entry, looked up): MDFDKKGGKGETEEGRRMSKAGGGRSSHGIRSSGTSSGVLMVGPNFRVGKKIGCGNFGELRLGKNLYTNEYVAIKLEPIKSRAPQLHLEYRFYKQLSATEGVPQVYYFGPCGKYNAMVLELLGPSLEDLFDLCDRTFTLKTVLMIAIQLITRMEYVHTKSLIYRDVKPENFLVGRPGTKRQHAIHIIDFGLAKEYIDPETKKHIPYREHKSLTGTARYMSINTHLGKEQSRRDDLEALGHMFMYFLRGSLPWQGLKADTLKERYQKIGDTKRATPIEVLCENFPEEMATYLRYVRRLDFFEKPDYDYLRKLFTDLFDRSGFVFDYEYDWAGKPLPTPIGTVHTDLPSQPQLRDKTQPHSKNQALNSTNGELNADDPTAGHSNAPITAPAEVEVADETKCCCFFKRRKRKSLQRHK
STK25 (human), sequence (O00506 whole entry, looked up): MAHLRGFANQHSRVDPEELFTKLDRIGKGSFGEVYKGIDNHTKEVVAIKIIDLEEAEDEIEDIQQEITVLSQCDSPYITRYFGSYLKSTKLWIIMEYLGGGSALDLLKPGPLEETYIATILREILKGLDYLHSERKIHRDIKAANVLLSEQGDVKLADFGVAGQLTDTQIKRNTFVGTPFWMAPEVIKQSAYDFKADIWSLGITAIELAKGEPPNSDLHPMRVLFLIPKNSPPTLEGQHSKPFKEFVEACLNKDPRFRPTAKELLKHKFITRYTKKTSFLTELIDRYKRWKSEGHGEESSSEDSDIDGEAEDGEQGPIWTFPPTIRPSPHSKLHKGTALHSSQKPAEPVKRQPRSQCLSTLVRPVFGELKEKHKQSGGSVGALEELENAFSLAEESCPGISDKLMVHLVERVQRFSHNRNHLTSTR
DYRK3 (human), sequence (O43781 whole entry, looked up): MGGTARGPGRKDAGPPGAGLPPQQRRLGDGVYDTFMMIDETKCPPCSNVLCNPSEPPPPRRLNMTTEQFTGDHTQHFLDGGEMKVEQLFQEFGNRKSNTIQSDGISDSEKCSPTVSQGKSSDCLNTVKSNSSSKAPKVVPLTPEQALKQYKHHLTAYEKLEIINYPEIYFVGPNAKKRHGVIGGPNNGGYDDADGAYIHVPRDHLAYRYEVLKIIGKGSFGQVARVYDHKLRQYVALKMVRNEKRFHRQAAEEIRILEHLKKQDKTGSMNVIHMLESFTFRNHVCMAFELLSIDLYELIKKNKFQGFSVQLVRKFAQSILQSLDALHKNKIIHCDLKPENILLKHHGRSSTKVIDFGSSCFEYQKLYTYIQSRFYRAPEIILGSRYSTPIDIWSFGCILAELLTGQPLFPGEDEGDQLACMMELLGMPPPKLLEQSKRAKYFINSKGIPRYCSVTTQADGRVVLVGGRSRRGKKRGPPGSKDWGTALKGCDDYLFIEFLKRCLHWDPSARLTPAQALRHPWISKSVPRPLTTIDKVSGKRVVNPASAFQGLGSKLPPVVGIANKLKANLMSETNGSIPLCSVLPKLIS
CAMK2G (human), sequence (Q13555 whole entry, looked up): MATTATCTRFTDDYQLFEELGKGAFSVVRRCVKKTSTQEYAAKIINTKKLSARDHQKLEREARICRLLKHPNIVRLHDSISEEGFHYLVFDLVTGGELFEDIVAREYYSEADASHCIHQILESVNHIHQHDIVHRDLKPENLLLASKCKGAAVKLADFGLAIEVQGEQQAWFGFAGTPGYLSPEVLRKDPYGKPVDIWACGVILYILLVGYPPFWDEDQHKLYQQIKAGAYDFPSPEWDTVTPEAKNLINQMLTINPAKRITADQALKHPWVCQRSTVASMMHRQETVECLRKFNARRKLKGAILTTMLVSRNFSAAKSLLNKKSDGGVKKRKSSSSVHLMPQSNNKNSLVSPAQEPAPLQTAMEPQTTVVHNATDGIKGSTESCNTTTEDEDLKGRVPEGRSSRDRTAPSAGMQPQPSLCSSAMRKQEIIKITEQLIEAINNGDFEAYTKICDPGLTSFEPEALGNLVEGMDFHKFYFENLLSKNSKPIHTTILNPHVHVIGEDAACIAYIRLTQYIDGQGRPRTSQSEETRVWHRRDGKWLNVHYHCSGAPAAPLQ
EPHA1 (human), sequence (P21709 whole entry, looked up): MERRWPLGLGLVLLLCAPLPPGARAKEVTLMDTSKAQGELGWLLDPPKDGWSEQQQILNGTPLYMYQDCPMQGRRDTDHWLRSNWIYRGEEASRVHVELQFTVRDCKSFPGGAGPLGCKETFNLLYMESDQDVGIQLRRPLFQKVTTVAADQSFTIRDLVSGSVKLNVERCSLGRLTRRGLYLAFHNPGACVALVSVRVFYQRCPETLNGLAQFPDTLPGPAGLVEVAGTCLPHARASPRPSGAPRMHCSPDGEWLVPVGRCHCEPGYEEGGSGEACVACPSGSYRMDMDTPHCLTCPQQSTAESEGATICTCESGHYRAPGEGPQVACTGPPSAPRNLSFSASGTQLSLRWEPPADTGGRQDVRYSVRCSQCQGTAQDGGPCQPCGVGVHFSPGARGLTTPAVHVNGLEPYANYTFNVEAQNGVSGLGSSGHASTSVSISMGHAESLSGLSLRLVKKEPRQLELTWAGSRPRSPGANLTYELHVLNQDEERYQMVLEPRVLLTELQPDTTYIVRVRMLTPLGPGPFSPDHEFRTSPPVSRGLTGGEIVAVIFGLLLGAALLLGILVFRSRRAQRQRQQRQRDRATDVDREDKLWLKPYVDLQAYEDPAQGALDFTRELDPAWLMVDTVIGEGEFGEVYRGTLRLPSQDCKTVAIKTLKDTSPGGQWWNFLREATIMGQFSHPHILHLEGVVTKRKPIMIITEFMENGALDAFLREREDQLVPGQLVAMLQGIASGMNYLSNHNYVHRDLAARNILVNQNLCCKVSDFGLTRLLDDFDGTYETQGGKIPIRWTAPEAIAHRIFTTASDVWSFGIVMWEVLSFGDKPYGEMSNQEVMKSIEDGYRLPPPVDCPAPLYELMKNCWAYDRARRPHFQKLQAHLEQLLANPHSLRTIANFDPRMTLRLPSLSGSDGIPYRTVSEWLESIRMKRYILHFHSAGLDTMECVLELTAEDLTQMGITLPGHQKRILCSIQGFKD

Compound: COc1cc2ncc(-c3ccccc3)nc2cc1OC
- residual activity [1]: 91.7%
- residual activity [2]: 103%
- residual activity [3]: 97.8%
- residual activity [4]: 98.2%
- residual activity [5]: 95.9%
- residual activity [6]: 80%
- residual activity [7]: 84%
- residual activity [8]: 82.8%
- residual activity [9]: 78.7%
- residual activity [10]: 93.4%
- residual activity [11]: 88.6%
- residual activity [12]: 97.2%
- residual activity [13]: 95.9%
- residual activity [14]: 94.5%
- residual activity [15]: 99.4%
- residual activity [16]: 102%
- residual activity [17]: 99.5%
- residual activity [18]: 98.3%
- residual activity [19]: 98.2%
- residual activity [20]: 113%
- residual activity [21]: 90.1%
- residual activity [22]: 90.5%
- residual activity [23]: 98.3%
- residual activity [24]: 100%
- residual activity [25]: 108%
- residual activity [26]: 93.5%
- residual activity [27]: 85.5%
- residual activity [28]: 102%
- residual activity [29]: 100%
- residual activity [30]: 106%
- residual activity [31]: 90.7%
- residual activity [32]: 87.4%
- residual activity [33]: 88.2%
- residual activity [34]: 84.5%
- residual activity [35]: 95.8%
- residual activity [36]: 95.4%
- residual activity [37]: 93.1%
- residual activity [38]: 90.3%
- residual activity [39]: 85.6%
- residual activity [40]: 62.1%
- residual activity [41]: 98%
- residual activity [42]: 96%

Compound: COc1ccc(CNC(=O)Nc2ncc([N+](=O)[O-])s2)cc1
- residual activity [1]: 100%
- residual activity [2]: 101%
- residual activity [3]: 89.5%
- residual activity [4]: 105%
- residual activity [5]: 115%
- residual activity [6]: 91.1%
- residual activity [7]: 100%
- residual activity [8]: 95.2%
- residual activity [9]: 98.9%
- residual activity [10]: 100%
- residual activity [11]: 101%
- residual activity [12]: 95.6%
- residual activity [13]: 104%
- residual activity [14]: 102%
- residual activity [15]: 96.9%
- residual activity [16]: 93.3%
- residual activity [17]: 98.8%
- residual activity [18]: 92.9%
- residual activity [19]: 99.3%
- residual activity [20]: 40.2%
- residual activity [21]: 97.8%
- residual activity [22]: 78.6%
- residual activity [23]: 101%
- residual activity [24]: 98.5%
- residual activity [25]: 87.8%
- residual activity [26]: 90.5%
- residual activity [27]: 110%
- residual activity [28]: 99.4%
- residual activity [29]: 95.9%
- residual activity [30]: 94%
- residual activity [31]: 98.6%
- residual activity [32]: 108%
- residual activity [33]: 99.2%
- residual activity [34]: 97.7%
- residual activity [35]: 107%
- residual activity [36]: 105%
- residual activity [37]: 109%
- residual activity [38]: 105%
- residual activity [39]: 99.7%
- residual activity [40]: 98.8%
- residual activity [41]: 102%
- residual activity [42]: 108%

Compound: O=C1NC(=O)/C(=C\c2ccc3nccnc3c2)S1
- residual activity [1]: 66.3%
- residual activity [2]: 112%
- residual activity [3]: 91.2%
- residual activity [4]: 94.3%
- residual activity [5]: 16.2%
- residual activity [6]: 92.1%
- residual activity [7]: 83.4%
- residual activity [8]: 83.1%
- residual activity [9]: 98%
- residual activity [10]: 104%
- residual activity [11]: 94.5%
- residual activity [12]: 21.8%
- residual activity [13]: 61.7%
- residual activity [14]: 101%
- residual activity [15]: 97.2%
- residual activity [16]: 96.6%
- residual activity [17]: 92.3%
- residual activity [18]: 3.08%
- residual activity [19]: 101%
- residual activity [20]: 93.4%
- residual activity [21]: 101%
- residual activity [22]: 97.3%
- residual activity [23]: 97.7%
- residual activity [24]: 97.2%
- residual activity [25]: 102%
- residual activity [26]: 88.3%
- residual activity [27]: 93%
- residual activity [28]: 105%
- residual activity [29]: 98.4%
- residual activity [30]: 92.3%
- residual activity [31]: 99.3%
- residual activity [32]: 67.3%
- residual activity [33]: 110%
- residual activity [34]: 100%
- residual activity [35]: 91.8%
- residual activity [36]: 71.5%
- residual activity [37]: 94.2%
- residual activity [38]: 97.2%
- residual activity [39]: 92.8%
- residual activity [40]: 80.9%
- residual activity [41]: 104%
- residual activity [42]: 97.3%
